# Patent US20170202845A1, “PROPHYLACTIC OR THERAPEUTIC AGENT FOR A POSTERIOR OCULAR DISEASE” (SANTEN PHARMACEUTICAL CO., LTD., priority 2014, published 2017)
# Tested on: choroidal neovascularization
# Assay: laser-induced rat choroidal neovascularization model
# Type: in vivo
# Experimental: Usefulness of the present compounds was evaluated using a laser-induced rat choroidal neovascularization model (Invest. Ophthalmol. Vis. Sci., 40(2), 459-466 (1999)).
# A rat was generally anesthetized by intramuscular administration of 1 mL/kg of a mixed solution (7:1) comprising a 5% (W/V) ketamine hydrochloride injection solution and a 2% xylazine hydrochloride injection solution. 0.5% (W/V) Tropicamide-0.5% phenylephrine hydrochloride eye drop was dropped into eyes for mydriasis, and photocoagulation was carried out with a krypton laser photocoagulation apparatus. […]
# At the 7th day after the photocoagulation, the rat was generally anesthetized by intramuscular administration of 1 mL/kg of a mixed solution (7:1) comprising a 5% (W/V) ketamine hydrochloride injection solution and a 2% xylazine hydrochloride injection solution. […] The spot of photocoagulation with no leakage of fluorescence detected by fluorescein fundus angiography was judged as negative (no neovascularization), and the spot of photocoagulation with leakage of fluorescence was judged as positive. The spot of photocoagulation with slight leakage of fluorescence was judged as positive (neovascularization exists) when 2 or more spots of such a state were detected in one eye. […]
structure (smiles),measurement,setting,value
"CC(=O)N[C@@H]1C[C@H](NC(C)(C)C)CC[C@@H]1N1CC[C@H](Nc2ncnc3cc(C(C)(C)C)nn23)C1=O [Compound 1b, N-((1R,2S,5R)-5-(tert-butylamino)-2-((S)-3-(7-tert-butylpyrazolo[1,5-a][1,3,5]triazin-4-ylamino)-2-oxopyrrolidin-1-yl)cyclohexyl)acetamide]",Suppressing rate (%),"krypton laser-induced rat choroidal neovascularization, 100 mg/kg orally twice a day for 7 days, fluorescein fundus angiography at 7th day, relative to base administered group",66.6%
same,inhibition of choroidal neovascularization (in words),laser-induced rat choroidal neovascularization model animal,inhibit choroidal neovascularization
